This note sets out measurements from patent US20040208844A1, “Products and drug delivery vehicles” (priority 2001, published 2004).

Usually Ki stands for the dissociation constant of the complex between target and ligand, obtained from inhibition or displacement. Higher therefore signals a looser hold on the target.

Each structure is given as a SMILES string.

For this assay, the target named is T1, Human placenta or human platelet vitronectin receptor, αvβ3 (Homo sapiens, UniProt P05106+P06756).
T1 construct: Human placenta or human platelet vitronectin receptor, αvβ3; from tissue; host or cells: human placenta or human platelets
Description: [3H]-SK&F-107260 vitronectin receptor binding assay. Particulars: sample dissolved in 1:1 TBS:DMSO; 5 nM [3H]-SK&F-107260. How it is done:
In vitro binding affinity of conjugates, polymeric micelles and polymer therapeutics of the present invention may be determined by receptor binding assays such as are known in the art. Conjugates, polymeric micelles and polymer therapeutics of the present invention will have a Ki (the dissociation constant of the antagonist) according to a receptor binding assay in the nanomolar to micromolar range, preferably in the nanomolar range.
The following samples were prepared for an in vitro binding assay:
Solution #1: polymer-receptor antagonist conjugate according to Example 3b, dissolved in TBS at a concentration of 10 milliMole of VRA 1.
Solution #2: PEG-PLA copolymer according to Example 2B, dissolved in TBS at a concentration of 50 mg/ml;
Solution #3: VRA 1 dissolved in 1:1 TBS:DMSO at a concentration of 10 milliMole;
Solution #4: polymer-receptor antagonist conjugate according to Example 3b, dissolved in 1:1 TBS:DMSO at a concentration of 10 milliMole VRA 1; and […]
Binding studies were carried out according to the method described by Wong et al., Studies on alphavbeta3/ligand interactions using a (^3H)SK&F-107260 binding assay, Mol. Pharmacology, 1996, 50, 529-537. […] After one hour incubation at room temperature, the wells were aspirated completely and washed twice with 100 ul of ice-cold Buffer A. Bound [^3H]-SK&F-107260 was solubilized and counted.

T1 sequence (P06756 31-889 limits assumed): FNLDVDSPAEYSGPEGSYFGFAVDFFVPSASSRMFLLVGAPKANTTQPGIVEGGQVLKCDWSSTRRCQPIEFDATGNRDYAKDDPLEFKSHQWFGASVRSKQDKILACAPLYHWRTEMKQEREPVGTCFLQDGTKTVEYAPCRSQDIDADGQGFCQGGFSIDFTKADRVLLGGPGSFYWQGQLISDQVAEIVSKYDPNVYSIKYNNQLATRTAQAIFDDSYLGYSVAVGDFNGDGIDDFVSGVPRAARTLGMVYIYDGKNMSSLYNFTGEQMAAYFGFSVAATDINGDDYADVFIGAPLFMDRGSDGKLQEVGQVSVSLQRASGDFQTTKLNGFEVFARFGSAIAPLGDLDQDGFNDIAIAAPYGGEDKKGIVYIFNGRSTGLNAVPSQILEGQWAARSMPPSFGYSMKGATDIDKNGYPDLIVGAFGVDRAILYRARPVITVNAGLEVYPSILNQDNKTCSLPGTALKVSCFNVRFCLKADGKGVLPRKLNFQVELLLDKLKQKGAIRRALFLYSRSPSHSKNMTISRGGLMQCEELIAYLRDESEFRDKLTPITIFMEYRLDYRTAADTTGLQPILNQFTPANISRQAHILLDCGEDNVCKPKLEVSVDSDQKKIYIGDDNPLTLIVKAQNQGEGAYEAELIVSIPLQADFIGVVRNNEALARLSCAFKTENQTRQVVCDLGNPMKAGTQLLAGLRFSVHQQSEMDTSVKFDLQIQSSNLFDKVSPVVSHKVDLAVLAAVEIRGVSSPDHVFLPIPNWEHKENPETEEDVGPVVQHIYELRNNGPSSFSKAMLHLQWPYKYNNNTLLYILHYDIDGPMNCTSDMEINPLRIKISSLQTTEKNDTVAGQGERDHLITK
T1 sequence (P06756 891-1048 partner limits assumed): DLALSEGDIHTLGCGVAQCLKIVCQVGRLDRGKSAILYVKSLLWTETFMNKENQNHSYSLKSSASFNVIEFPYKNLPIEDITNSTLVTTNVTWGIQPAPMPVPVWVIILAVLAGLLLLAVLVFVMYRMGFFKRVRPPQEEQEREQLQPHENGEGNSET
T1 sequence (P05106 27-788): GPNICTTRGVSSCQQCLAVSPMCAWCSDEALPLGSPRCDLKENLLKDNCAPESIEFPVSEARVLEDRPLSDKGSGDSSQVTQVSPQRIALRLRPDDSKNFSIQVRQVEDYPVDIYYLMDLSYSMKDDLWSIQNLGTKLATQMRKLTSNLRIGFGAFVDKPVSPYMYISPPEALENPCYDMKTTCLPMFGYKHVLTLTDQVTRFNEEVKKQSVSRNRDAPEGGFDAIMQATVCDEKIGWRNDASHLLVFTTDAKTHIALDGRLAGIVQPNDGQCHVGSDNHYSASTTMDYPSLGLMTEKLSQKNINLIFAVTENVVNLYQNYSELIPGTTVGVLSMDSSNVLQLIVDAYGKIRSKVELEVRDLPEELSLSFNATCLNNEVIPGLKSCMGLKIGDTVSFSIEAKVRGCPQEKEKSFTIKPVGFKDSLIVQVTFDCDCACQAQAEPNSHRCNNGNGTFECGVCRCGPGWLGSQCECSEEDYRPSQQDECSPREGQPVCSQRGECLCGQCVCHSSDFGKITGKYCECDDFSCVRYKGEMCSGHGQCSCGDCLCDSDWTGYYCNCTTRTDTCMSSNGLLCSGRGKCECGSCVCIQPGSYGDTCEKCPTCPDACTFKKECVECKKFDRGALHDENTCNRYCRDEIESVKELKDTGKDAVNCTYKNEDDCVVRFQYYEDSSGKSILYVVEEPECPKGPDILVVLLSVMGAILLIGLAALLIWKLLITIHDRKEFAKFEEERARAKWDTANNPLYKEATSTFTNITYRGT

`CN1Cc2cc(C(=O)N(CCCCN)Cc3nc4ccccc4[nH]3)ccc2N[C@@H](CC(=O)O)C1=O` [VRA 1, (S)-7-[[N-(4-Aminobutyl)-N-(benzimidazol-2-ylmethyl)]amino]carbonyl-4-methyl-3-oxo-2,3,4,5-tetrahydro-1H-1,4-benzodiazepine-2-acetic acid] gave a Ki of 1.7 nM.
